What was measured:
[1] = Inhibition of adenosine transporter in human HeLa cells assessed as reduction in [3H]adenosine uptake preincubated for 30 mins followed by [3H]adenosine addition and measured after 60 mins; type: cell-based
[2] = Half-life in Beagle dog; type: ADME, Canis lupus familiaris; details: in vivo
[3] = Intrinsic clearance in Beagle dog at 0.05 mg/kg; type: ADME, organism-based, Canis lupus familiaris; details: in vivo
[4] = Unbound volume of distribution in Wistar Han rat; type: ADME; details: in vivo
[5] = Lipophilicity, log D of the compound by HPLC analysis; type: physicochemical
[6] = Volume of distribution in Wistar Han rat; type: ADME; details: in vivo
[7] = Oral bioavailability in Wistar Han rat; type: ADME, organism-based; details: in vivo
[8] = Plasma clearance in Wistar Han rat at 0.5 mg/kg, iv or 1 mg/kg, po; type: ADME, organism-based
[9] = Apparent permeability in pig LLC-PK1 cells; type: ADME, cell-based, Sus scrofa
[10] = Volume of distribution in Beagle dog; type: ADME, Canis lupus familiaris; details: in vivo
[11] = Unbound volume of distribution in Beagle dog; type: ADME, Canis lupus familiaris; details: in vivo
[12] = Half-life in Wistar Han rat; type: ADME; details: in vivo
[13] = biological target: PI3-kinase p110-delta/p85-alpha (Homo sapiens, UniProt O00329); assay: Inhibition of N-terminal His6-tagged recombinant full length human p110delta/untagged recombinant full length human p85alpha expressed in baculovirus infected Sf21 insect cells using PIP2 as substrate preincubated for 15 mins followed by substrate addition and measured after 1 hr by HTRF assay
[14] = biological target: T1, Phosphatidylinositol 4,5-bisphosphate 3-kinase catalytic subunit delta isoform (Homo sapiens, UniProt O00329); assay: Inhibition of PI3Kdelta in human Ramos cells assessed as reduction in anti-IgM-antibody-induced phosphorylation of AKT at Ser473 residue preincubated for 20 mins followed by anti-IgM antibody stimulation and measured after 30 mins by alphascreen assay; type: cell-based
T1 sequence (O00329 whole entry): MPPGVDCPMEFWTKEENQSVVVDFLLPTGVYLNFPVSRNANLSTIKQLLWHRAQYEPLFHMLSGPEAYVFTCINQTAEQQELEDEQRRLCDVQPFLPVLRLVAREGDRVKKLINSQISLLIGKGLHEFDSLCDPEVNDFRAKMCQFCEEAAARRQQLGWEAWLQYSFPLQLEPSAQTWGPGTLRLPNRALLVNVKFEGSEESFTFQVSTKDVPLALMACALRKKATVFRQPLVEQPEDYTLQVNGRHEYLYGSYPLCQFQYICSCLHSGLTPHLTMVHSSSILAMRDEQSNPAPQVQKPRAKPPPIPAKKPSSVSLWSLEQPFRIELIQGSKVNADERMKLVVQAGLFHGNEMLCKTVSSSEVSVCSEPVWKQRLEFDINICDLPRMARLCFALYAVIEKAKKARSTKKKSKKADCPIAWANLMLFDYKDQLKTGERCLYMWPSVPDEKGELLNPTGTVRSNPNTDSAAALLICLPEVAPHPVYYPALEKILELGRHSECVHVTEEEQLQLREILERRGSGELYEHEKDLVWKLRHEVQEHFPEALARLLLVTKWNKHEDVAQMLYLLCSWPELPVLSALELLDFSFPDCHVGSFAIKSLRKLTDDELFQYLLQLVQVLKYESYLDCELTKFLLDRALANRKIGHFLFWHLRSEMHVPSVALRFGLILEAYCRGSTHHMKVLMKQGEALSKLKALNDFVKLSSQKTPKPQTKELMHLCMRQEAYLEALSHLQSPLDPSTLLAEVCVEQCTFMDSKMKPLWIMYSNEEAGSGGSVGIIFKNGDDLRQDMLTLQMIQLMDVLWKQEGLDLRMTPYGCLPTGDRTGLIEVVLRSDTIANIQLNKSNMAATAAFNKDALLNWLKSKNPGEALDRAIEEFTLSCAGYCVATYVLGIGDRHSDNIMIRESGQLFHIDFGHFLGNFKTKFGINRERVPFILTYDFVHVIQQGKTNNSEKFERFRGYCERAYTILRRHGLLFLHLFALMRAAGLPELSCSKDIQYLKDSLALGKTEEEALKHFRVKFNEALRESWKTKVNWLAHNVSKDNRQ

[15] = Intrinsic clearance in Wistar Han rat at 0.5 mg/kg, iv or 1 mg/kg, po; type: ADME, organism-based; details: in vivo
[16] = Plasma clearance in Beagle dog at 0.05 mg/kg; type: ADME, organism-based, Canis lupus familiaris
[17] = Plasma clearance in Wistar Han rat at 0.05 mg/kg, iv or 1 mg/kg, po; type: ADME, organism-based
[18] = Intrinsic clearance in Wistar Han rat at 0.05 mg/kg, iv or 1 mg/kg, po; type: ADME, organism-based; details: in vivo
[19] = Intrinsic clearance in Beagle dog at 0.25 mg/kg, iv or 0.5 mg/kg, po; type: ADME, organism-based, Canis lupus familiaris; details: in vivo
[20] = biological target: T1, Phosphatidylinositol 4,5-bisphosphate 3-kinase catalytic subunit delta isoform; assay: Inhibition of PI3Kdelta in human whole blood assessed as reduction in anti-CD79b antibody-induced CD69 expression preincubated for 60 mins followed by anti-CD79b antibody stimulation and measured after 3 hrs by FACS analysis; type: tissue-based
[21] = Oral bioavailability in Beagle dog; type: ADME, organism-based, Canis lupus familiaris; details: in vivo
[22] = Plasma clearance in Beagle dog at 0.25 mg/kg, iv or 0.5 mg/kg, po; type: ADME, organism-based, Canis lupus familiaris

Chain of PI3-kinase p110-delta/p85-alpha (P27986 whole entry, one chain of several, canonical isoform): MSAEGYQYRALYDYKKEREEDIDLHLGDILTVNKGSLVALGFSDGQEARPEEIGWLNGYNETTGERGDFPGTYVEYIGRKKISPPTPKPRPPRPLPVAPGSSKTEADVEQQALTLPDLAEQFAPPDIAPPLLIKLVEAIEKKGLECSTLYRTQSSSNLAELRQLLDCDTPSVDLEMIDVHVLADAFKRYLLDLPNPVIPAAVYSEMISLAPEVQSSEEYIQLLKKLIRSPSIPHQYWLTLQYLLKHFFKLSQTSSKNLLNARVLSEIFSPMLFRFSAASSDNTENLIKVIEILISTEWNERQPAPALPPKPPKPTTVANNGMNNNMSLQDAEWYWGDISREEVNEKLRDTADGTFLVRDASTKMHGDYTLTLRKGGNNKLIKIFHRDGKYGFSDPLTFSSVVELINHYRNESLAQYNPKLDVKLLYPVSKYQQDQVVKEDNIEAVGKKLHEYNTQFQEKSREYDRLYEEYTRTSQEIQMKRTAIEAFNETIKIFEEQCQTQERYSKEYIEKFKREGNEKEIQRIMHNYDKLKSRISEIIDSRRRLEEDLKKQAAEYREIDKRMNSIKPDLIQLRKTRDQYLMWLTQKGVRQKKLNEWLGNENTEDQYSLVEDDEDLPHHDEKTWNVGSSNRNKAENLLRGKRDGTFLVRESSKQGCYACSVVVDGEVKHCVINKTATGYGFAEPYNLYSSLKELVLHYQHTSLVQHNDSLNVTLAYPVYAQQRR

| SMILES | IC50 [1] [nM] | half-life [2] [h] | CL [3] [mL/min/kg] | Vdu [4] [L/kg] | logD [5] | Vd [6] [L/kg] | bioavailability [7] [%] | clearance [8] [mL/min/kg] | Vd [10] [L/kg] | Vdu [11] [L/kg] | half-life [12] [h] | IC50 [13] [nM] | IC50 [14] [nM] | CL [15] [mL/min/kg] | clearance [16] [mL/min/kg] | clearance [17] [mL/min/kg] | CL [18] [mL/min/kg] | other results |
| --- | --- | --- | --- | --- | --- | --- | --- | --- | --- | --- | --- | --- | --- | --- | --- | --- | --- | --- |
| CCC(=O)N1CC[C@H](Nc2ncnc3c2nc(-c2cnc(C)nc2)n3CC)C1 | > 10000 | 2.7 | 9 | 3.6 | 0.7 | 1 | 61 | 21 | 1.5 | 1.9 | 1.5 | 1.9 | 42 | 100 | 5.5 | – | – | Papp [9]: 21 ×10⁻⁶ cm/s |
| CCn1c(-c2cnc(C)nc2)nc2c(O[C@H]3CCN(C(=O)N4CC(OC)C4)C3)ncnc21 | 8700 | 1.2 | 32 | 2.1 | 0.9 | 0.4 | 75 | 4 | 1.4 | 2.3 | 1.7 | 3.3 | 63 | 25 | 12 | – | – | – |
| CCC(=O)N1CC[C@H](Oc2ncnc3c2nc(-c2cnc(C)nc2)n3CC)C1 | > 10000 | 3.9 | 11 | 2.4 | 0.8 | 1.2 | – | – | 1.9 | 2.7 | 1.2 | – | – | – | 6.1 | 12 | 31 | Papp [9]: 21 ×10⁻⁶ cm/s |
| CCn1c(-c2ccc(C(F)(F)F)nc2)nc2c(O[C@H]3CCN(C(=O)C4CC4)C3)ncnc21 | 5600 | – | – | 8.3 | 2.3 | 0.7 | – | – | – | – | 0.7 | 5.1 | 49 | – | – | 15 | 240 | – |
| CCn1c(-c2ccc(C(F)(F)F)nc2)nc2c(N[C@H]3CCN(C(=O)C4CC4)C3)ncnc21 | 1200 | 3.1 | 22 | 8.8 | 2 | 0.4 | 36 | 4.7 | 1.2 | 3.9 | 1.2 | 1.7 | 12 | 104 | 5.6 | – | – | – |
| CCn1c(-c2cnc(C)nc2)nc2c(N[C@H]3CCN(C(=O)C4CC(F)(F)C4)C3)ncnc21 | 3800 | – | – | 18 | 1.5 | 0.9 | – | – | – | – | 0.4 | 2.2 | 13 | – | – | 26 | 760 | – |
| CCn1c(-c2cnc(C)nc2)nc2c(O[C@H]3CCN(C(=O)C4CCOC4)C3)ncnc21 (stereo not given in full) | > 10000 | 3.8 | 4.2 | 0.9 | 0.7 | 0.5 | – | – | 0.7 | 0.9 | 1.4 | 6 | – | – | 3 | 6.2 | 12 | – |
| CCn1c(-c2ccc(C(F)(F)F)nc2)nc2c(O[C@H]3CCN(C(=O)c4cocn4)C3)ncnc21 | 4400 | 2.5 | – | 2.6 | 2 | 0.3 | 100 | 1.3 | 1.2 | 3.4 | 6 | 7.5 | 300 | 13 | – | – | – | CL [19]: 19 mL/min/kg; IC50 [20]: 380 nM; bioavailability [21]: 100%; Papp [9]: 29 ×10⁻⁶ cm/s; clearance [22]: 5.6 mL/min/kg |
| CCn1c(-c2cnc(C)nc2)nc2c(N[C@H]3CCN(C(=O)c4cocn4)C3)ncnc21 | – | – | – | 6.1 | 0.6 | 0.6 | – | – | – | – | 0.7 | – | 82 | – | – | 13 | 150 | – |
| CCn1c(-c2ccc(C(F)(F)F)nc2)nc2c(O[C@H]3CCN(C(=O)C4CCOC4)C3)ncnc21 (stereo not given in full) | 3200 | 3.6 | – | 3.6 | 1.9 | 0.2 | 58 | 1.2 | 0.9 | 1.6 | 2.3 | 4.1 | 110 | 19 | – | – | – | CL [19]: 6 mL/min/kg; IC50 [20]: 100 nM; bioavailability [21]: 100%; Papp [9]: 27 ×10⁻⁶ cm/s; clearance [22]: 3.4 mL/min/kg |
| CCn1c(-c2cnc(C)nc2)nc2c(O[C@H]3CCN(C(=O)C4CCOCC4)C3)ncnc21 | > 10000 | 1.9 | 7 | 1.5 | 0.8 | 0.8 | 31 | 14 | 0.8 | 1.1 | 1.4 | 13 | 390 | 37 | 4.3 | – | – | – |
| CCn1c(-c2cnc(C)nc2)nc2c(O[C@H]3CCN(C(=O)C4CCC4)C3)ncnc21 | 7700 | 1.1 | 27 | 4 | 1.3 | 0.6 | – | – | 1 | 1.4 | 0.3 | 1.2 | 14 | – | 12 | 28 | 270 | – |
| CCn1c(-c2cnc(C)nc2)nc2c(O[C@H]3CCN(C(=O)C4CC(F)(F)C4)C3)ncnc21 | 9900 | 0.8 | 170 | 3 | 1.5 | 0.5 | – | – | 1.4 | 2.5 | 1.4 | 3.8 | 32 | – | 23 | 6 | 28 | IC50 [20]: 84 nM |
| CCn1c(-c2cnc(C)nc2)nc2c(N[C@H]3CCN(C(=O)C4CCOC4)C3)ncnc21 (stereo not given in full) | > 10000 | – | – | 2.3 | 0.6 | 0.7 | – | – | – | – | 0.6 | 1.6 | – | – | – | 18 | 74 | – |

Source: ChEMBL document CHEMBL4834420, “Projected Dose Optimization of Amino- and Hydroxypyrrolidine Purine PI3Kδ Immunomodulators” (J Med Chem, 2021)
